Measurements as given in US20260207569A1, “LPA1 ANTAGONISTS FOR TREATING INTERSTITIAL LUNG DISEASE” (Bristol-Myers Squibb Company, priority 2022, published 2026).
Entries after “also recorded” stand apart in the source; their conditions may differ.

Experiments:
Assay type in all cases: in vivo, human
[1] = system: participants with PPF; assay: Phase 2 PPF cohort efficacy: rate of FVC decline (% predicted) / FVC to Week 26; settings: for Mean observed change from baseline in ppFVC and FVC vs placebo: to week 26
Description: A total of 123 participants with PPF were randomized. Participants (age ≥21 years) were randomized (1:1:1) to receive 30 mg or 60 mg Compound A or PBO twice daily for 26 weeks. […] Immunosuppressive medications (mycophenolate mofetil, mycophenolic acid, azathioprine and/or tacrolimus) were permitted only if dosing is stable for ≥6 months prior to screening. If receiving antifibrotic agents pirfenidone or nintedanib, patients had to receive a stable dosage for ≥3 months prior to screening and during the screening period; if not receiving pirfenidone or nintedanib, patients had to be naive to both drugs or not have received either 4 weeks prior to Day 1. A total of 47 (38.2%) subjects were receiving antifibrotic treatment (with or without immunosuppression therapy). Of those subjects, 34 were being treated with nintedanib and 13 with pirfenidone. Participants were stratified by usual interstitial pneumonia (UIP) pattern (presence versus absence) and background therapy (antifibrotics +/−ILD-targeted immunosuppression versus ILD-targeted immunosuppression alone versus none). UIP pattern was present in 52% of subjects and unclassifiable ILD was he most common disease categorization.
The study was not powered to detect statistical significance (no formal testing). No target effect size was defined in the study design. There were two estimand approaches for analysis: • Treatment Policy: Effect of treatment with dose reduction as part of treatment regimen. • While-On Treatment: Effect of treatment without dose reduction.
The main efficacy endpoint, rate of FVC decline (in % of predicted) from baseline to wk-26 in the PPF cohort, was estimated using a linear mixed-effects model utilizing all FVC timepoints. It was analyzed under a primary estimand (utilizing all data, treatment policy strategy), and under supplementary estimand (utilizing all data up to the point of dose reduction, while-on-treatment strategy). Analysis was performed in the overall population as well as in sub-groups by 1) background anti-fibrotic treatment or not 2) UIP radiographic pattern (presence or not). The mean baseline ppFVC was 66.7% for the PPF cohort.

[2] = Phase 2 IPF cohort safety: adverse events, low blood pressure criteria, dose reductions
Description: A total of 278 participants with IPF were randomized and 276 participants were treated as of […] analyses data cut-off (4 Aug. 2022). Male and female participants ≥40 years of age with IPF and percent predicted forced vital capacity (ppFVC) ≥40% and percent predicted DLCO (ppDLCO) ≥25%; diagnosed within 7 years of screening; having a centrally-read chest HRCT obtained at screening that was consistent with UIP or probable UIP, or having a lung biopsy consistent with UIP, were eligible to enter the study. The mean baseline ppFVC for all subjects was 76.5%. In the primary IPF cohort, participants were randomized (1:1:1) to receive 30 mg or 60 mg Compound A or placebo (PBO) twice daily for 26 weeks. Participants were stratified by standard of care (SoC) IPF therapy (pirfenidone versus nintedanib versus none) and region (Japan versus Rest of World) at randomization.
Patient experiences any of the following, confirmed by retest within 15 minutes: • Seated systolic blood pressure <85 mmHg • Seated diastolic blood pressure <55 mmHg • Orthostatic hypotension
Patient experiences symptoms that, in the investigator's opinion, could be associated with a reduction in blood pressure and also experiences at least one of the following, confirmed by retest within 15 minutes: • Seated systolic blood pressure <100 mmHg or seated diastolic blood pressure <60 mmHg • Decrease of seated systolic blood pressure of ≥20 mmHg from the previous visit or decrease of seated diastolic blood pressure of ≥10 mmHg from the previous visit • Orthostatic hypotension • Orthostatic tachycardia

[3] = Phase 1 Part B multiple ascending dose (MAD), blood pressure, healthy participants
Description: The study was performed in 3 parts in 112 healthy male and female participants, including 24 Japanese participants. Female participants were to be not of childbearing potential. The present study was designed to evaluate the safety and tolerability, PK, and exploratory PD of an oral suspension of Compound A. Parts A and B (Cohort B1 only) enrolled healthy participants and was conducted at a site in The Netherlands and Part B (Cohort B2 to B5) enrolled healthy non-Japanese participants and was conducted at a site in the United Kingdom (UK). Part C enrolled healthy Japanese participants and was conducted at the same site in the UK.
Part B was a MAD study in a planned number of 6 sequential dose escalation cohorts (10 mg QD, 30 mg QD, 30 mg BID, 60 mg BID, 125 mg BID, and ≤250 mg BID) of 8 healthy participants (6 active+2 placebo) each, under fasted conditions. However, Cohort B6 (≤250 mg BID) was cancelled because sufficient safety and PK data had been obtained at doses up to 125 mg BID. Eligible participants received study drug (Compound A or placebo) administered orally for 14 days.
Physical examinations, vital sign measurements (including orthostasis testing in Cohort A6, Cohort B3 to B5, and C1 to C3 at selected time points), 12-lead electrocardiogram (ECG), and clinical laboratory evaluations were performed at selected times throughout the study. In addition, Holter monitoring was performed for the first 24 hours post dose on Day 1 in Part A (not in FE/pH cohort), and also for the first 24 hours post dose on Day 1 and Day 14 in Parts B and C. Participants were closely monitored for adverse events (AEs). Blood samples were collected for up to 14 days (follow-up visit) after (last) study drug administration for PK analysis. In addition, blood and urine were collected for exploratory biomarker assessments and for biobanking of samples for potential analyses. Urine was collected for potential PK analysis for up to 96 hours after a single dose of Compound A or placebo was administered in the SAD part, and for up to 24 hours after the first (morning) dose of study drug on Day 1 and for up to 24 hours after the last (morning) dose of study drug on Day 14 in the MAD parts.

[4] = Active Total (30 mg and 60 mg groups)

In the case of `CCCN(C)C(=O)OCc1c(-c2ccc(O[C@H]3CCC[C@H](C(=O)O)C3)c(C)n2)nnn1C` [Compound A, (1S,3S)-3-((2-methyl-6-(1-methyl-5-(((methyl(propyl)carbamoyl)-oxy)methyl)-1H-1,2,3-triazol-4-yl)pyridin-3-yl)oxy)cyclohexane-1-carboxylic acid], the “Treatment differences by UIP pattern” value ([1]; PPF cohort) was “treatment differences were seen in the PPF cohort independent of UIP pattern presence or absence”, the “Treatment differences in rates of change in ppFVC by background antifibrotic use” value ([1]; PPF cohort) was “consistent with or without background antifibrotic use” and the “Dose response of efficacy” value ([1]; PPF cohort, 30 mg and 60 mg BID) was “Clear dose response”. The “Consistency of efficacy across sub-groups” value ([1]; PPF cohort, background antifibrotics, UIP pattern) was “Efficacy consistent in all sub-groups”, the “Rate of decline in FVC (% Predicted), slope” value (“Rate … (% Predicted), slope” below) ([1]; PPF, 30 mg BID, UIP absent, supplementary estimand) was −2.24 % Predicted and the “Rate … (% Predicted), slope” value ([1]; PPF, 30 mg BID, UIP present, primary estimand) was −3.07 % Predicted. For the same molecule, the “Rate … (% Predicted), slope” value ([1]; PPF, 30 mg BID, not receiving antifibrotic treatment, supplementary estimand) was −2.83 % Predicted, the “Rate … (% Predicted), slope” value ([1]; PPF, 30 mg BID, overall population, primary estimand (treatment policy), 26 weeks) was −2.7 % Predicted and the “Rate … (% Predicted), slope” value ([1]; PPF, 30 mg BID, receiving antifibrotic treatment, supplementary estimand) was −1.8 % Predicted. The “Mean observed change from baseline in ppFVC and FVC vs placebo” value ([1]; PPF, 30 mg BID) was “shows more significant improvement after week 20”, the “Rate … (% Predicted), slope” value ([1]; PPF, 60 mg BID, UIP absent, supplementary estimand) was −0.7 % Predicted and the “Rate … (% Predicted), slope” value ([1]; PPF, 60 mg BID, UIP present, primary estimand) was −1.46 % Predicted. The “Rate … (% Predicted), slope” value ([1]; PPF, 60 mg BID, not receiving antifibrotic treatment, supplementary estimand) was −1.56 % Predicted, the “Rate … (% Predicted), slope” value ([1]; PPF, 60 mg BID, overall population, supplementary estimand (while on treatment), 26 weeks) was −1.3 % Predicted and the “Rate … (% Predicted), slope” value ([1]; PPF, 60 mg BID, receiving antifibrotic treatment, supplementary estimand) was −1.1 % Predicted. The “Mean observed change from baseline in ppFVC and FVC vs placebo” value ([1]; PPF, 60 mg BID) was “maintains the improvement over placebo through the end of week 26”, the “Slope difference, 60 mg − placebo” value ([1]; PPF, UIP absent, supplementary estimand) was 3.8 % Predicted and the “Slope difference, 30 mg − placebo” value ([1]; PPF, UIP present, primary estimand) was 0.88 % Predicted. The “Slope difference (S.E.), 60 mg − placebo” value ([1]; PPF, overall population, primary estimand (treatment policy)) was 3.2 % Predicted, the “Slope difference (S.E.), 60 mg − placebo” value ([1]; PPF, overall population, supplementary estimand (while on treatment)) was 2.9 % Predicted and the “Dose reductions to 10 mg BID due to protocol-defined low BP criteria, %” value ([2]; 30 mg BID) was 7.7%. For the same molecule, the “Dose reductions to 10 mg BID due to protocol-defined low BP criteria, %” value ([2]; 60 mg BID) was 6.5%, the “Risk of orthostatic intolerance, orthostatic hypotension or low BP criteria vs PBO” value ([2]; 60 mg BID) was “lowest frequencies of orthostatic intolerance, orthostatic hypotension, or pre-specified symptomatic or asymptomatic low BP criteria; also recorded: not associated with any increased risk of orthostatic intolerance, orthostatic hypotension, orthostatic tachycardia, or symptomatic or asymptomatic low BP” and the “Subjects discontinuing study treatment due to a TEAE, %” value [2, 4] was “(8.2) %”. The “Subjects who died due to a TEAE, %” value [2, 4] was “(3.8) %”, the “Subjects who died, %” value [2, 4] was “(4.9) %” and the “Subjects with at least one AESI, %” value [2, 4] was “(14.7) %”. For the same molecule, the “Subjects with at least one TEAE related to the study treatment, %” value [2, 4] was “(26.1) %”, the “Subjects with at least one TEAE, %” value [2, 4] was “(75.0) %” and the “Subjects with at least one TESAE, %” value [2, 4] was “(10.9) %”. For the same molecule, the Mean DBP ([3]; MAD 60 mg BID, D 14 320 h) was 63 mmHg, the Mean DBP ([3]; MAD 125 mg BID, D 15 336 h) was 63 mmHg and the “Reductions in BP vs placebo” value ([3]; MAD BID groups) was “no clear differences between placebo and the Compound A groups”. The “Reductions in mean SBP and DBP” value ([3]; MAD QD groups) was “reductions generally occurred in a Compound A dose-dependent manner”.
